# Experimental data published in article PMC4659573 (PLoS ONE, 2015).
# Assays:
# relapsed/refractory CLL = conditions: cited from earlier work
# primary CLL cells = assay: CLL cell apoptosis, Annexin V staining within the CD19+ subset, flow cytometry; format: cell-based, human; conditions: for CLL cell apoptosis with selective CDK inhibitors: alone or in combination, data not shown
# Text: Following approval by the Committee for Protection of Human Subjects at Dartmouth-Hitchcock Medical Center, the Institutional Review Board at Oregon Health and Science University and written consent of patients, peripheral blood was obtained from patients with B-CLL at the hematology clinics at the above institutions (N = 52). The mean time from CLL diagnosis to entry of study was 5 years; 39 patients (75%) were previously untreated. Isolation of peripheral blood mononuclear cells (PMBCs) was performed using standard Ficoll-Hypaque technique (Amersham, Piscataway, NJ). CLL samples had more than 90% CD5^+/CD19^+ cells, as determined by flow cytometry. CLL cells were cultured in RMPI-1640 medium supplemented with 15% fetal bovine serum, 100 U/mL penicillin, 100 μg/mL streptomycin, 2 mM L-glutamine, 25 mM HEPES, 100 μM non-essential amino acids and 1 mM sodium pyruvate (Lonza, Walkersville, MD). 10 CLL samples with 17p deletion were obtained from the CLL Center at Dana-Farber Cancer Institute. All experiments were performed with freshly isolated cells except the viability assays involving the latter, which were performed with viably frozen cells.
# CLL cell apoptosis was measured in duplicates as previously described using the ApoScreen Annexin V Apoptosis Kit. Briefly, cells were resuspended in 150 μl of Annexin V binding buffer containing 1 μl of Annexin V-PE, 1 μl of 7-aminoactinomycin D (7-AAD) and 1 μl of CD19-mAbs (Southern Biotech, Birmingham, AL) followed by flow cytometry on a MACSQuant flow cytometer (Miltenyi Biotec, San Diego, CA). Flow cytometry analysis was performed using FlowJo software (Tree Star, Ashland, OR). P1446A was provided by Piramal Healthcare Ltd. (Mumbai, India). JNK Inhibitor VIII, SP600125, SB203580, ABT-737 and PD0332991 were obtained from Selleck Chemicals (Houston, TX) and CVT-313—from Santa Cruz Biotechnology (Dallas, TX).
# Here and subsequently, apoptosis was determined by Annexin V staining within the CD19^+ subset of cells. Horizontal lines represent the mean. […] IC50 value was determined for CLL samples with mutated (N = 13) and unmutated IGHV (N = 10). […] Cytogenetics markers were determined by fluorescent in situ hybridization [no marker, 11q, trisomy 12, 13q, 17p]. Horizontal lines represent the mean. […] Since we noted a significant variation in baseline apoptosis between patient samples, normalization to the time-matched untreated controls was performed to more clearly reflect the drug-induced apoptosis. *- p<0.05 compared to untreated control.
# CDK8 = target: T1, CDK8 (Homo sapiens, UniProt P49336); assay: biochemical kinase profiling (Kinase 400-Profiler, ProQinase); conditions: S1 Fig
# T1 construct: purchased ProQinase, Freiburg, Germany
# T1 sequence (P49336 whole entry): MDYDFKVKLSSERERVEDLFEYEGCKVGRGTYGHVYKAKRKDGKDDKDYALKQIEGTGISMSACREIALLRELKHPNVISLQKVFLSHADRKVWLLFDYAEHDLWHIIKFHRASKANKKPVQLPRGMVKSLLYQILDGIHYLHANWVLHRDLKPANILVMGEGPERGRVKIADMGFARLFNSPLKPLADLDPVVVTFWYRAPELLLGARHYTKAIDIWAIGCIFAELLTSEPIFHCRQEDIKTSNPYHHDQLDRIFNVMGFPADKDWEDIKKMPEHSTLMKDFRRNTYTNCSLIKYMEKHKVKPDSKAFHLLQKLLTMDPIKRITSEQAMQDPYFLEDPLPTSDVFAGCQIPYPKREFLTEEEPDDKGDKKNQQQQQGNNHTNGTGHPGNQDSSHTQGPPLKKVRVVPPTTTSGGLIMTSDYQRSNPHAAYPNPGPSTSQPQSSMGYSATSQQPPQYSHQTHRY
# T1 sequence (P24863 whole entry partner): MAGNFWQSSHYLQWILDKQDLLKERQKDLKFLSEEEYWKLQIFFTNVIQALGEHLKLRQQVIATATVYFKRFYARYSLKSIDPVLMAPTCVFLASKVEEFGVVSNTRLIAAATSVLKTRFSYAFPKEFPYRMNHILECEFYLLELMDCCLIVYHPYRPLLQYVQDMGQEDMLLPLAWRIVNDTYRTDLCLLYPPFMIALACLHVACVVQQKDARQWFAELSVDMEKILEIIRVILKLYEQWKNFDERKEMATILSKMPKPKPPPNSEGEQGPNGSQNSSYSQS
# Description: (§1) Supplementary file pone.0143685.s001.pptx: S1 Fig Determination of selectivity of P1446A-05 was established using biochemical kinase profiling (Kinase 400-Profiler, ProQinase, Freiburg, Germany). IC50 values were determined for the 37 kinases whose activity was inhibited by ≥60% at a drug concentration of 10 μM or less (as shown). […] (PPTX) Click here for additional data file.
# CDK1 = target: T2, CDK1 (Homo sapiens, UniProt P06493); assay: as above; conditions: S1 Fig
# T2 construct: purchased ProQinase, Freiburg, Germany
# T2 sequence (P06493 whole entry): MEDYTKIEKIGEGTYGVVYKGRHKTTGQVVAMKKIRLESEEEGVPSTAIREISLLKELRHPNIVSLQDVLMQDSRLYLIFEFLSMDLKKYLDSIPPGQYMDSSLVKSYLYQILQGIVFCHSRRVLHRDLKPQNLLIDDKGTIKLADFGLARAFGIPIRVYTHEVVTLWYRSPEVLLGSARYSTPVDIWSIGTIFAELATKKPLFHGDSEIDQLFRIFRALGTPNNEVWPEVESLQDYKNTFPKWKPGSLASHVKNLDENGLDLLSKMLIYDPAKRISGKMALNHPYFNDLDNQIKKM
# T2 sequence (P14635 whole entry partner): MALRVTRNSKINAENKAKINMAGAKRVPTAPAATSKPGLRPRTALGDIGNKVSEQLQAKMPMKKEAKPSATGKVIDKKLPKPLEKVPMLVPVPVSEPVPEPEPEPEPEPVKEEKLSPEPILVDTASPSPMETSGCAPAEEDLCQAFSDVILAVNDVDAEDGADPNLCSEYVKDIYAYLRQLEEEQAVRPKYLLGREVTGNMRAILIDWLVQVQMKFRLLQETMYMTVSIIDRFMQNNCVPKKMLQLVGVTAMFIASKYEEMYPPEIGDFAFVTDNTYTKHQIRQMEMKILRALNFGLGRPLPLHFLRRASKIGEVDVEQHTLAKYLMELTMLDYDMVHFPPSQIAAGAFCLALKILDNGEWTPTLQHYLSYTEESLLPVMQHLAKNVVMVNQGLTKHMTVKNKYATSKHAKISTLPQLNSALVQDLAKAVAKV
# Description: as §1
# CDK6 = target: T3, CDK6 (Homo sapiens, UniProt Q00534); assay: as above; conditions: S1 Fig
# T3 construct: purchased ProQinase, Freiburg, Germany
# T3 sequence (Q00534 whole entry): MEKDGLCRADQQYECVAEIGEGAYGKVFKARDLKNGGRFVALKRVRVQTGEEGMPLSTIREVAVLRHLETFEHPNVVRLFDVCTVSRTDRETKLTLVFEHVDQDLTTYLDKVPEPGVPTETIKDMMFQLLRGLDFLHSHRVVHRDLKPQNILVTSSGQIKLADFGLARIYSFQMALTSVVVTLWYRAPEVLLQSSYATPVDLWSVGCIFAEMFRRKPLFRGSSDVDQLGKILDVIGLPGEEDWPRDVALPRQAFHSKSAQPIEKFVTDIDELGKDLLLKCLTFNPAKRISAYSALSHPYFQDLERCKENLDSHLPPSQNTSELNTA
# T3 sequence (P24385 whole entry partner): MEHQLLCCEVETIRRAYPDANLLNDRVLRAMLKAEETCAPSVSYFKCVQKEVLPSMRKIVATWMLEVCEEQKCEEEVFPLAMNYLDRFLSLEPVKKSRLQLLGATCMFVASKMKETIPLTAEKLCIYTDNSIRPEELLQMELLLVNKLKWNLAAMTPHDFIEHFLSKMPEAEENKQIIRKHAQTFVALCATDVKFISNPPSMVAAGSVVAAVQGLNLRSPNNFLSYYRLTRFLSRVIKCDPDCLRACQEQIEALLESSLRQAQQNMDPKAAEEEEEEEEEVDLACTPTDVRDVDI
# Description: as §1
# CDK4 = target: T4, CDK4 (Homo sapiens, UniProt P11802); assay: as above; conditions: S1 Fig
# T4 construct: purchased ProQinase, Freiburg, Germany
# T4 sequence (P11802 whole entry): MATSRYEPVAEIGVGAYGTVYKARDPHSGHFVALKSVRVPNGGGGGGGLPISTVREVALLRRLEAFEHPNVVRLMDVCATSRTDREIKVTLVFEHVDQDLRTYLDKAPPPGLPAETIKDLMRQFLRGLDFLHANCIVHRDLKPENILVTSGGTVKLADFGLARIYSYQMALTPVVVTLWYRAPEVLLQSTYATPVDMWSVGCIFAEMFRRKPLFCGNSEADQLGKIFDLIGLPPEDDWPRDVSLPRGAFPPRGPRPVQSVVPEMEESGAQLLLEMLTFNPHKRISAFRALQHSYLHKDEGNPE
# T4 sequence (P24385 whole entry partner): as the sequence (P24385 whole entry partner) above
# Description: as §1
# CDK2 = target: T5, CDK2 (Homo sapiens, UniProt P24941); assay: as above; conditions: S1 Fig
# T5 construct: purchased ProQinase, Freiburg, Germany
# Description: as §1
# CDK5 = target: T6, CDK5 (Homo sapiens, UniProt Q00535); assay: as above; conditions: S1 Fig
# T6 construct: purchased ProQinase, Freiburg, Germany
# T6 sequence (Q00535 whole entry): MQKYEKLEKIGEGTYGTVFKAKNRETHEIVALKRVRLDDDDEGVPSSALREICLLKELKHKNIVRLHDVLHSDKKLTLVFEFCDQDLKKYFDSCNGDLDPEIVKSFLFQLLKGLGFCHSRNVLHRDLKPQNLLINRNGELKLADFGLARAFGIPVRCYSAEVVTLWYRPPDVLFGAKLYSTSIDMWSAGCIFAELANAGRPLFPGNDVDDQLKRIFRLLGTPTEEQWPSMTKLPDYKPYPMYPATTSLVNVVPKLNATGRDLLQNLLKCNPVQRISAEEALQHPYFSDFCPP
# T6 sequence (Q15078 99-307 partner limits assumed): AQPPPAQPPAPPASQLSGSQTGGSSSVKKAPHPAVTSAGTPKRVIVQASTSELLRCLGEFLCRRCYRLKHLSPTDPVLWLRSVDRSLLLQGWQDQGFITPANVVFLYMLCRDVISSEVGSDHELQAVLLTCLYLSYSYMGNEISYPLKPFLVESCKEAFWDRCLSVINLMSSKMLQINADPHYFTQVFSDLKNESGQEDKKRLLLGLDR
# Description: as §1
# [1] = target: T7, Glycogen synthase 3ß (GSK3ß) (Homo sapiens, UniProt P49841); assay: biochemical kinase profiling (S1 Fig)
# T7 construct: purchased ProQinase, Freiburg, Germany
# T7 sequence (P49841 whole entry): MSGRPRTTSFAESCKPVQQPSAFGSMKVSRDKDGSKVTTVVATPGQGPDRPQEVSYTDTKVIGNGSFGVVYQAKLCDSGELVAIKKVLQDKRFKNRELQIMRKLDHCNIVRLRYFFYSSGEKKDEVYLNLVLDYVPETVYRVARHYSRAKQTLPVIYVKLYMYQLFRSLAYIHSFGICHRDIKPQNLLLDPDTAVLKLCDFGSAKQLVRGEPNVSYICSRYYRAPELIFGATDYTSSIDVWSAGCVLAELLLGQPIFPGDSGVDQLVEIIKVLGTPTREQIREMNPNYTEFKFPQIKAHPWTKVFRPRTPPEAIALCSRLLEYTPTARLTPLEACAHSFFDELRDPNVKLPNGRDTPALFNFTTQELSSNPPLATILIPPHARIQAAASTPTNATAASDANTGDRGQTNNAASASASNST
# Description: as §1
# PIM kinase isoforms = assay: biochemical kinase profiling (S1 Fig)
# Description: as §1
# HCT-116 = tested on: HCT-116; set-up: method as in Piramal Healthcare Ltd., proprietary information; 24; conditions: HCT-116 xenograft mouse model; ref Piramal Healthcare Ltd., proprietary information; 24; cited from earlier work
# [2] = tested on: kinases (Kinase 400-Profiler panel); assay: kinase selectivity profiling (Kinase 400-Profiler, ProQinase); format: biochemical; conditions: at a drug concentration of 10 μM or less
# Description: as §1
# H-460 = tested on: H-460; set-up: method as in Piramal Healthcare Ltd., proprietary information; 24; conditions: H-460 xenograft mouse model; ref Piramal Healthcare Ltd., proprietary information; 24; cited from earlier work
compound,measurement,setting,value
CN1CC[C@H](c2c(O)cc(O)c3c(=O)cc(-c4ccccc4Cl)oc23)[C@H](O)C1 [flavopiridol],patients with responses,relapsed/refractory CLL,53%
"COc1ccc(CNc2nc(N(CCO)CCO)nc3c2ncn3C(C)C)cc1 [CVT-313, reference compound]",CLL cell apoptosis with selective CDK inhibitors,primary CLL cells,did not lead to CLL cell apoptosis
CCc1cnn2c(NCc3ccc[n+]([O-])c3)cc(N3CCCC[C@H]3CCO)nc12 [Dinaciclib],overall response rate,relapsed/refractory CLL; patients with relapsed/refractory CLL,54%
"CC(=O)c1c(C)c2cnc(Nc3ccc(N4CCNCC4)cn3)nc2n(C2CCCC2)c1=O [PD0332991, reference compound]",CLL cell apoptosis with selective CDK inhibitors,primary CLL cells,did not lead to CLL cell apoptosis
CN1CC[C@@H](c2c(O)cc(O)c3c(=O)cc(-c4ccc(C(F)(F)F)cc4Cl)oc23)[C@@H]1CO [P1446A],IC50,CDK8,12 nM
same,IC50,CDK1,25 nM
same,IC50,CDK6,210 nM
same,IC50,CDK4,90 nM
same,IC50,CDK2,180 nM
same,IC50,CDK5,210 nM
same,concentration range of inhibition in vitro,[1],nanomolar concentration range
same,concentration range of inhibition in vitro,PIM kinase isoforms,nanomolar concentration range
same,tumor growth in xenograft,HCT-116,restricted growth
same,number of kinases whose activity was inhibited by ≥60%,[2],37
same,tumor growth in xenograft,H-460,restricted growth
same,cells that underwent apoptosis,"primary CLL cells; 0.5 μM, 24 hour incubation, N = 10, vehicle control 29.2±2.0%",47.2±3.5%
same,apoptosis of CLL cells,"primary CLL cells; 1.5 μM, 24 hour incubation, N = 10",83.3±3.3%
